Results as given in ChEMBL document CHEMBL3885881, “DrugMatrix”.

Species on record: Rattus norvegicus
Assay: DrugMatrix - Regimen: Daily Repeat
Assay type: toxicity, organism-based, Sprague-Dawley
Set-up: regimen Daily Repeat, gender Male, age 6-8 weeks
Conditions: in vivo, po, route oral GAVAGE, vehicle .5 % CMC; for BASOPHIL / EOSINOPHIL / ERYTHROCYTE COUNT / HEMATOCRIT / HEMOGLOBIN / LEUKOCYTE COUNT / LYMPHOCYTE / MEAN CORPUSCULAR HEMOGLOBIN / MEAN CORPUSCULAR HEMOGLOBIN CONCENTRATION / MONOCYTE / NEUTROPHIL / PLATELET COUNT: tissue Blood; for ALANINE AMINOTRANSFERASE / ALBUMIN / ALKALINE PHOSPHATASE / ASPARTATE AMINOTRANSFERASE / BLOOD UREA NITROGEN / CHLORIDE / CHOLESTEROL / CREATINE PHOSPHOKINASE / CREATININE / GLUCOSE / PHOSPHORUS / POTASSIUM / SODIUM / TOTAL BILIRUBIN / TOTAL PROTEIN: tissue Plasma
[1] = 0 mg/kg, 72 h, dose level Control, time 3 day
[2] = 0 mg/kg, 120 h, dose level Control, time 5 day
[3] = 60 mg/kg, 72 h, dose level Low, time 3 day
[4] = 60 mg/kg, 120 h, dose level Low, time 5 day

## CC(C)Cc1ccc([C@H](C)C(=O)O)cc1 [DEXIBUPROFEN]
[1]
  BASOPHIL: 1.52%
  EOSINOPHIL: 0.98%
  ERYTHROCYTE COUNT: 6.96 x10E6/uL
  HEMATOCRIT: 44.65%
  HEMOGLOBIN: 13.62 G/DL
  LEUKOCYTE COUNT: 9.83 x10E3/uL
  LYMPHOCYTE: 76.48%
  MEAN CORPUSCULAR HEMOGLOBIN: 19.57 pg
  MEAN CORPUSCULAR HEMOGLOBIN CONCENTRATION: 30.47 G/DL
  MONOCYTE: 2.13%
  NEUTROPHIL: 18.6%
  PLATELET COUNT: 1217.17 x10E3/uL
  ALANINE AMINOTRANSFERASE: 41 u/L
  ALBUMIN: 3.77 G/DL
  ALKALINE PHOSPHATASE: 411.83 u/L
  ASPARTATE AMINOTRANSFERASE: 62.83 u/L
  BLOOD UREA NITROGEN: 15.17 mg/dL
  CHLORIDE: 104.33 MEQ/L
  CHOLESTEROL: 71.17 mg/dL
  CREATINE PHOSPHOKINASE: 123.5 u/L
  CREATININE: 0.55 mg/dL
  GLUCOSE: 182.67 mg/dL
  PHOSPHORUS: 11.23 mg/dL
  POTASSIUM: 7.03 MEQ/L
  SODIUM: 148 MEQ/L
  TOTAL BILIRUBIN: 0.57 mg/dL
  TOTAL PROTEIN: 6.85 G/DL
[2]
  BASOPHIL: 1.35%
  EOSINOPHIL: 0.43%
  ERYTHROCYTE COUNT: 6.96 x10E6/uL
  HEMATOCRIT: 44.35%
  HEMOGLOBIN: 13.98 G/DL
  LEUKOCYTE COUNT: 9.45 x10E3/uL
  LYMPHOCYTE: 80.83%
  MEAN CORPUSCULAR HEMOGLOBIN: 20.1 pg
  MEAN CORPUSCULAR HEMOGLOBIN CONCENTRATION: 31.52 G/DL
  MONOCYTE: 2.37%
  NEUTROPHIL: 14.05%
  PLATELET COUNT: 1298 x10E3/uL
  ALANINE AMINOTRANSFERASE: 42.17 u/L
  ALBUMIN: 3.77 G/DL
  ALKALINE PHOSPHATASE: 419 u/L
  ASPARTATE AMINOTRANSFERASE: 66.67 u/L
  BLOOD UREA NITROGEN: 16.67 mg/dL
  CHLORIDE: 103.17 MEQ/L
  CHOLESTEROL: 66.33 mg/dL
  CREATINE PHOSPHOKINASE: 148.33 u/L
  CREATININE: 0.58 mg/dL
  GLUCOSE: 196.83 mg/dL
  PHOSPHORUS: 11.8 mg/dL
  POTASSIUM: 6.47 MEQ/L
  SODIUM: 148.33 MEQ/L
  TOTAL BILIRUBIN: 0.53 mg/dL
  TOTAL PROTEIN: 6.77 G/DL
[3]
  BASOPHIL: 1.63%
  EOSINOPHIL: 0.33%
  ERYTHROCYTE COUNT: 7.19 x10E6/uL
  HEMATOCRIT: 45.6%
  HEMOGLOBIN: 14.37 G/DL
  LEUKOCYTE COUNT: 11 x10E3/uL
  LYMPHOCYTE: 73.1%
  MEAN CORPUSCULAR HEMOGLOBIN: 19.97 pg
  MEAN CORPUSCULAR HEMOGLOBIN CONCENTRATION: 31.47 G/DL
  MONOCYTE: 2.23%
  NEUTROPHIL: 22.3%
  PLATELET COUNT: 1212.33 x10E3/uL
  ALANINE AMINOTRANSFERASE: 40.33 u/L
  ALBUMIN: 3.57 G/DL
  ALKALINE PHOSPHATASE: 328 u/L
  BLOOD UREA NITROGEN: 13.33 mg/dL
  CHLORIDE: 104 MEQ/L
  CHOLESTEROL: 71 mg/dL
  CREATINE PHOSPHOKINASE: 116 u/L
  CREATININE: 0.6 mg/dL
  GLUCOSE: 170.33 mg/dL
  PHOSPHORUS: 11.63 mg/dL
  POTASSIUM: 6.3 MEQ/L
  SODIUM: 150 MEQ/L
  TOTAL BILIRUBIN: 0.37 mg/dL
[4]
  BASOPHIL: 1.23%
  EOSINOPHIL: 0.3%
  ERYTHROCYTE COUNT: 6.82 x10E6/uL
  HEMATOCRIT: 42.17%
  HEMOGLOBIN: 13.37 G/DL
  LEUKOCYTE COUNT: 13 x10E3/uL
  LYMPHOCYTE: 76.73%
  MEAN CORPUSCULAR HEMOGLOBIN: 19.6 pg
  MEAN CORPUSCULAR HEMOGLOBIN CONCENTRATION: 31.67 G/DL
  MONOCYTE: 2.2%
  NEUTROPHIL: 18.83%
  PLATELET COUNT: 1398.33 x10E3/uL
  ALANINE AMINOTRANSFERASE: 34 u/L
  ALBUMIN: 3.5 G/DL
  ALKALINE PHOSPHATASE: 320.33 u/L
  ASPARTATE AMINOTRANSFERASE: 59.67 u/L
  BLOOD UREA NITROGEN: 15.67 mg/dL
  CHLORIDE: 104.67 MEQ/L
  CHOLESTEROL: 70.33 mg/dL
  CREATINE PHOSPHOKINASE: 96 u/L
  CREATININE: 0.53 mg/dL
  GLUCOSE: 186.33 mg/dL
  PHOSPHORUS: 12.03 mg/dL
  POTASSIUM: 6.2 MEQ/L
  SODIUM: 149.33 MEQ/L
  TOTAL BILIRUBIN: 0.3 mg/dL
  TOTAL PROTEIN: 6.27 G/DL
